Laboratory results published in patent publication US7763751B2 (priority 2003, dated 2010).
Where two headings read alike, the source gives them in different places.

Legend:
α-synuclein = target: T1, α-synuclein (Homo sapiens, UniProt P37840); experiment: Inhibition of NAC (α-synuclein) spontaneous aggregation (HPLC assay); assay type: biochemical; conditions: for potency in inhibiting the aggregation of α-synuclein as compared to compound (3): comparison with known compound (3); for anti-aggregating properties against α-synuclein: in words
T1 construct: The synthetic peptide NAC (Bachem) was dissolved at 1 mg/ml; purchased Bachem; host or cells: chemical synthesis
Method: (§1) In our experimental conditions, the peptide monomer (anti-aggregation protocol) or already aggregated (disaggregation protocol) was incubated at 37° C., alone or in the presence of the test compound, for different time intervals, then centrifuged and both the supernatant and the pellet were analyzed by HPLC or Thioflavine T binding assay.
Inhibition of Non Aβ Component of Alzheimer's Disease Amyloid (NAC, α-synuclein) Spontaneous Aggregation
Preparation of the NAC peptide
The synthetic peptide NAC (Bachem) was dissolved at 1 mg/ml in H2O/CH3CN 1:1 plus 5% TFA. Aliquots of 40 μg were lyophilized under vacuum for 18 h and stored at −80° C.
NAC spontaneous aggregation
40 μg of lyophilized peptide sample was dissolved at 500 μM in 20 mM potassium phosphate buffer, pH 7.4, containing 150 mM NaCl. The sample was incubated for 24 h at 37° C. After centrifugation at 13000 xg for 5 min, the pellet was dissolved in formic acid and both pellet and supernatant were analyzed by HPLC. The extent of aggregation was determined as the percentage of peptide content in the pellet compared to the total amount used.

β-Amyloid1-42 = target: T2, β-Amyloid1-42 (Homo sapiens, UniProt P05067); experiment: Inhibition of Aβ 1-42 spontaneous aggregation (HPLC assay); assay type: biochemical; conditions: for IC50: concentration able to inhibit the aggregation of the fibrils by 50%, peptide 20 μM, pH 7.4, 18 h at 37° C., read-out: β-Amyloid1-42 Anti-aggregation (HPLC assay) IC50; for potency in inhibiting the aggregation of Aβ1-42 as compared to compound (3): comparison with known compound (3); for anti-aggregating properties against Aβ1-42: in words
T2 construct: Synthetic Aβ 1-42 (U.S. Peptide, Rancho Cucamonga, USA); purchased U.S. Peptide, Rancho Cucamonga, USA; host or cells: chemical synthesis
T2 sequence (P05067 672-713 limits assumed): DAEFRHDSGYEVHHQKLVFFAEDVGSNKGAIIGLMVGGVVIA
Method: as §1
Inhibition of Aβ 1-42 Spontaneous Aggregation
Preparation of the Aβ 1-42 peptide
Synthetic Aβ 1-42 (U.S. Peptide, Rancho Cucamonga, USA) was dissolved to 220 μM in H2O/CH3CN 1:1. Aliquots of 10 μg were lyophilized under vacuum with an Eppendorf concentrator for 18 h and stored at −80° C.
Aβ 1-42 spontaneous aggregation
10 μg of lyophilized peptide sample was dissolved at 20 μM in 20 mM potassium phosphate buffer, pH 7.4, containing 150 mM NaCl. The sample was incubated for 18 h at 37° C. After centrifugation at 13000 xg for 5 min, the pellet was dissolved in formic acid and both the pellet and the supernatant were analysed by HPLC. The extent of aggregation was determined as the percentage of peptide content in the pellet compared with the total amount.

SMILES | IC50 (α-synuclein; NAC peptide 500 μM, pH 7.4, 24 h at 37° C., read-out: α-synuclein Anti-aggregation (HPLC assay) IC50) | IC50 (β-Amyloid1-42) | IC50 (α-synuclein) | potency in inhibiting the aggregation of α-synuclein as compared to compound (3) (α-synuclein) | anti-aggregating properties against α-synuclein (α-synuclein) | potency in inhibiting the aggregation of Aβ1-42 as compared to compound (3) (β-Amyloid1-42) | anti-aggregating properties against Aβ1-42 (β-Amyloid1-42)
CCCN(CCC)[C@@H]1Cc2c(O)ccc(O)c2C[C@H]1C (relative stereo) [Compound 3, trans-N-(5,8-hydroxy-3-methyl-1,2,3,4-tetrahydro-naphtalene-2yl)-N,N-dipropyl-amine, reference compound] | 878 µM | 60 µM |  |  |  |  | 
CONC(C)Cc1ccc(O)c(O)c1 (centres unmarked) [Compound 1, N-(1-methyl-2-(3,4-dihydroxy-phenyl)-ethyl)-O-methyl-hydroxylamine] |  | 15 µM | 222 µM | more potent | significant anti-aggregating properties | more potent | significant anti-aggregating properties
CCCN(OCC)C1CCc2c(ccc(O)c2O)C1 (centres unmarked) [Compound 2, N-(5,6-dihydroxy-1,2,3,4-tetrahydro-naphthalene-2-yl)-N-propyl-O-ethyl-hydroxylamine] |  | 6 µM | 35 µM | significantly more potent | significant anti-aggregating properties | significantly more potent | significant anti-aggregating properties
